From ChEMBL document CHEMBL3991601, “The target landscape of clinical kinase drugs” (Science, 2017)
Activity calls are given as the source filed them.

Experiments:
[1] = biological target: T1, DNA replication licensing factor MCM4 (Homo sapiens, UniProt P33991)
T1 sequence (P33991 whole entry): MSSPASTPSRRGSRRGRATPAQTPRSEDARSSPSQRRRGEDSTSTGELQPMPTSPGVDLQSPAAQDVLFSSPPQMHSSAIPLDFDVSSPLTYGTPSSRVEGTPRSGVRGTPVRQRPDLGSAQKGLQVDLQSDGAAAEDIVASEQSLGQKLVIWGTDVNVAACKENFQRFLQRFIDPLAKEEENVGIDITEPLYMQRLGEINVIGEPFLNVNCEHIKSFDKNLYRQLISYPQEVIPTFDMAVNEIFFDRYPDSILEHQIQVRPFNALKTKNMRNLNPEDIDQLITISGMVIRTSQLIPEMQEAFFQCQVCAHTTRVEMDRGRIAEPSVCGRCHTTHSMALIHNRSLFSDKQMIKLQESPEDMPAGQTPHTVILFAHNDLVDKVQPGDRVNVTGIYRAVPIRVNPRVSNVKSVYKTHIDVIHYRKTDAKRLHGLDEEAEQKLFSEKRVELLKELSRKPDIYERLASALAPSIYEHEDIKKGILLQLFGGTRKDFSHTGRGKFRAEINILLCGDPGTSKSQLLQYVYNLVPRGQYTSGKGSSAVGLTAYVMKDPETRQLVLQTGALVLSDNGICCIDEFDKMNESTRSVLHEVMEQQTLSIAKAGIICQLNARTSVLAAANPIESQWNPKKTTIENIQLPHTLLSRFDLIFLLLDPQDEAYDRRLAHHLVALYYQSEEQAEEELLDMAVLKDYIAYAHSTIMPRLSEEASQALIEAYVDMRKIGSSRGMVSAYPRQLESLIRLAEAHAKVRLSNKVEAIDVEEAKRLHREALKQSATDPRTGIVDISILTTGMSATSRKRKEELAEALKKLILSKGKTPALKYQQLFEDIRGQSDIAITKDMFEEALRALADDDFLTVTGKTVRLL

Insulin receptor = Insulin receptor (Homo sapiens, UniProt P06213)
Insulin receptor, sequence (P06213 28-758 limits assumed): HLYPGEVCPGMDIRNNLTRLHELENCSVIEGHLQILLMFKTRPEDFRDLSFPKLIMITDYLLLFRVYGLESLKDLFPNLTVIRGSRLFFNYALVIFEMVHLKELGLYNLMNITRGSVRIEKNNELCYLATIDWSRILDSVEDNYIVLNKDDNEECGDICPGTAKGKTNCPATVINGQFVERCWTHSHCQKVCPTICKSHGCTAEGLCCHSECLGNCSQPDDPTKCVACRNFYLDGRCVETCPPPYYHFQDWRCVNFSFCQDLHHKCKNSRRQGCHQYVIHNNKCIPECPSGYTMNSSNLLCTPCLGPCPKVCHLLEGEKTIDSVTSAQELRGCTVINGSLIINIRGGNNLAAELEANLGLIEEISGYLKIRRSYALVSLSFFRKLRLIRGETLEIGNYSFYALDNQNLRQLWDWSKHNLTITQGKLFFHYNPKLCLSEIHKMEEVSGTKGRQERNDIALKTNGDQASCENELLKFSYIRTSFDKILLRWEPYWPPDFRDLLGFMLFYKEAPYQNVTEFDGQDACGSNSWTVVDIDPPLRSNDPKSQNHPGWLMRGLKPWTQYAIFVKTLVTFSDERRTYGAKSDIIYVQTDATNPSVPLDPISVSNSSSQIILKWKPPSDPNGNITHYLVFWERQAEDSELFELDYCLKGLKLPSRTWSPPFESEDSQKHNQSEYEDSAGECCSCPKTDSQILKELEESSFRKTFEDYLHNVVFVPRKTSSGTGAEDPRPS
Insulin receptor, sequence (P06213 763-1382 limits assumed): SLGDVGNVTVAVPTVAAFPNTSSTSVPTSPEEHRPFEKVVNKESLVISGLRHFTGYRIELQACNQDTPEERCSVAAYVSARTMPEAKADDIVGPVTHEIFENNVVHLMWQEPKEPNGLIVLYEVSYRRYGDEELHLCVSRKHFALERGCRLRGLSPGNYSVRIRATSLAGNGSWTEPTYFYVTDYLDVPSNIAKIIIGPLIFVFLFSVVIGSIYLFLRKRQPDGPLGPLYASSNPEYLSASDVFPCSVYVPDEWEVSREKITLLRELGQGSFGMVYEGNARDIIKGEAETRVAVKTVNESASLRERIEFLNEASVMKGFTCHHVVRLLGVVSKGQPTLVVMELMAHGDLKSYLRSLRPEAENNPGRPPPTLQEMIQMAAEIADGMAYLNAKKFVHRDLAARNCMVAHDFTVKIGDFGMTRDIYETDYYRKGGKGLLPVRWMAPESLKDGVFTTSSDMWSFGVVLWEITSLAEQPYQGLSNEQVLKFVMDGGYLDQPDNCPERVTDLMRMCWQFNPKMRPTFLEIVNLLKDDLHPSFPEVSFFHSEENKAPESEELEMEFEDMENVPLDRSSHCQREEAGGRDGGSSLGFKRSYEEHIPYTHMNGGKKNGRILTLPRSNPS

[2] = biological target: Mitogen-activated protein kinase kinase kinase kinase 4 (Homo sapiens, UniProt O95819)
Mitogen-activated protein kinase kinase kinase kinase 4, sequence (O95819 whole entry): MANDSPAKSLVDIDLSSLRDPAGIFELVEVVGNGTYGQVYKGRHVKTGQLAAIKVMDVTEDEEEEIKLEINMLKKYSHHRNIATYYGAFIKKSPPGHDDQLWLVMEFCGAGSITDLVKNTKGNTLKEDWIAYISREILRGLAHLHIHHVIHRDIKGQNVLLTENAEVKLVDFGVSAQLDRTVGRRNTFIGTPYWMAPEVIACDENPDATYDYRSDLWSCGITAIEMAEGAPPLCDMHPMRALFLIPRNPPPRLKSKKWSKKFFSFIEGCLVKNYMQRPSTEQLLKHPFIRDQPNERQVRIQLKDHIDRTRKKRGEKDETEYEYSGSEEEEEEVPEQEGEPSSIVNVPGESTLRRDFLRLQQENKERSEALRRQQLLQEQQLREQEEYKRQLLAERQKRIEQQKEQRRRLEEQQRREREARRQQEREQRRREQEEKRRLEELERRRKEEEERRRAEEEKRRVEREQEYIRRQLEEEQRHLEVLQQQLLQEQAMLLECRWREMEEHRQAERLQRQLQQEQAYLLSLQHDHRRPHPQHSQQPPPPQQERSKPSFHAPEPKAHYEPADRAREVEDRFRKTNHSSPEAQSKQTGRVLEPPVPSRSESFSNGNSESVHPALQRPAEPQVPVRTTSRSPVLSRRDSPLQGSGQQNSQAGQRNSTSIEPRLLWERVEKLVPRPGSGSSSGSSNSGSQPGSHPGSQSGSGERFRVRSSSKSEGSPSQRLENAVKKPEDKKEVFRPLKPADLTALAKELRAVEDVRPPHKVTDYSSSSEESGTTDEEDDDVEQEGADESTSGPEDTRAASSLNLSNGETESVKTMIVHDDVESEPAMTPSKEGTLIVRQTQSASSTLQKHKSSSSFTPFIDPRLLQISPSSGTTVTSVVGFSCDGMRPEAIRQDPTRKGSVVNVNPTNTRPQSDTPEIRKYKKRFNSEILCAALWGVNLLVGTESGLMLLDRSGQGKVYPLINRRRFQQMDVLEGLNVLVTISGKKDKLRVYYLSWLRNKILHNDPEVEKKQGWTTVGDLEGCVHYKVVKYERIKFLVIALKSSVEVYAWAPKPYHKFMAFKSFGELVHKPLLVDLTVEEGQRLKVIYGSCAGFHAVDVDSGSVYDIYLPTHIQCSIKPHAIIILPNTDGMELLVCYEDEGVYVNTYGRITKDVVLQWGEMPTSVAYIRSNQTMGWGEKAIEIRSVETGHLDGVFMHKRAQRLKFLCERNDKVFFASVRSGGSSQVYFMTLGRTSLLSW

[3] = biological target: T2, Serine/threonine-protein kinase D2 (Homo sapiens, UniProt Q9BZL6)
T2 sequence (Q9BZL6 whole entry): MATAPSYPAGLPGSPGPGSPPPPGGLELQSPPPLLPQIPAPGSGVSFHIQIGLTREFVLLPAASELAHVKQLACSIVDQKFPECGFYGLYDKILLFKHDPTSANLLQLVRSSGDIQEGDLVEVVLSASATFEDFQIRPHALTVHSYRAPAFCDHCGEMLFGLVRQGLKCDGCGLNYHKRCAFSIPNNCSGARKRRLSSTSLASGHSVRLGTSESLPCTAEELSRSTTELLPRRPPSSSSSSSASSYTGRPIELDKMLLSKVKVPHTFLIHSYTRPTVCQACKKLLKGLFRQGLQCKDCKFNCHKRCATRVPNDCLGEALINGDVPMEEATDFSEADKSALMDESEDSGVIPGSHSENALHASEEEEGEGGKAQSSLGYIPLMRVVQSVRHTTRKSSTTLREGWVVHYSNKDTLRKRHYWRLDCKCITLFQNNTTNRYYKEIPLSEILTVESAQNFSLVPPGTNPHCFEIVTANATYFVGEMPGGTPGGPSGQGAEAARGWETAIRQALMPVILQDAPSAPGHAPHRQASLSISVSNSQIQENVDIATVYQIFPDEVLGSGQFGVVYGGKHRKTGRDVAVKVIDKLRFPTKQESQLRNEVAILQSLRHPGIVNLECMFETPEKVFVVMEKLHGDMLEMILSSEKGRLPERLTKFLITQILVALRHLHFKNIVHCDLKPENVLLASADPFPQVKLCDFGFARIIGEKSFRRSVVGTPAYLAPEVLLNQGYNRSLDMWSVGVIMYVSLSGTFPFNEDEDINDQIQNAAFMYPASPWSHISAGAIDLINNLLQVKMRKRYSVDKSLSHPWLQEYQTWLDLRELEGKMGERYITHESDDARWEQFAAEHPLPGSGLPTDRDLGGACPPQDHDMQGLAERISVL

[4] = biological target: 26S proteasome regulatory subunit 6B (Homo sapiens, UniProt P43686)
26S proteasome regulatory subunit 6B, sequence (P43686 whole entry): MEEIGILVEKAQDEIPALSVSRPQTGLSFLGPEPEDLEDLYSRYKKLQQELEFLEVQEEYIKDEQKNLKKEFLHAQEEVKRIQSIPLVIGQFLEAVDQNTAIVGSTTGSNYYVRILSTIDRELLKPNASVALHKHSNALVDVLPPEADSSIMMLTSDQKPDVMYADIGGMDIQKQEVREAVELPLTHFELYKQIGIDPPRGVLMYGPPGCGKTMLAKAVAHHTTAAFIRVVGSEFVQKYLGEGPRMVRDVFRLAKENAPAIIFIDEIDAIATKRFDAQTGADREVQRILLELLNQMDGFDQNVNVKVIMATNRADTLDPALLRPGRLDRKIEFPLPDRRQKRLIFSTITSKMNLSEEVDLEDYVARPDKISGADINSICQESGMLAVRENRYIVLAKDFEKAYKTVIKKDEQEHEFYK

[5] = biological target: T3, Mitogen-activated protein kinase kinase kinase kinase 2 (Homo sapiens, UniProt Q12851)
T3 sequence (Q12851 whole entry): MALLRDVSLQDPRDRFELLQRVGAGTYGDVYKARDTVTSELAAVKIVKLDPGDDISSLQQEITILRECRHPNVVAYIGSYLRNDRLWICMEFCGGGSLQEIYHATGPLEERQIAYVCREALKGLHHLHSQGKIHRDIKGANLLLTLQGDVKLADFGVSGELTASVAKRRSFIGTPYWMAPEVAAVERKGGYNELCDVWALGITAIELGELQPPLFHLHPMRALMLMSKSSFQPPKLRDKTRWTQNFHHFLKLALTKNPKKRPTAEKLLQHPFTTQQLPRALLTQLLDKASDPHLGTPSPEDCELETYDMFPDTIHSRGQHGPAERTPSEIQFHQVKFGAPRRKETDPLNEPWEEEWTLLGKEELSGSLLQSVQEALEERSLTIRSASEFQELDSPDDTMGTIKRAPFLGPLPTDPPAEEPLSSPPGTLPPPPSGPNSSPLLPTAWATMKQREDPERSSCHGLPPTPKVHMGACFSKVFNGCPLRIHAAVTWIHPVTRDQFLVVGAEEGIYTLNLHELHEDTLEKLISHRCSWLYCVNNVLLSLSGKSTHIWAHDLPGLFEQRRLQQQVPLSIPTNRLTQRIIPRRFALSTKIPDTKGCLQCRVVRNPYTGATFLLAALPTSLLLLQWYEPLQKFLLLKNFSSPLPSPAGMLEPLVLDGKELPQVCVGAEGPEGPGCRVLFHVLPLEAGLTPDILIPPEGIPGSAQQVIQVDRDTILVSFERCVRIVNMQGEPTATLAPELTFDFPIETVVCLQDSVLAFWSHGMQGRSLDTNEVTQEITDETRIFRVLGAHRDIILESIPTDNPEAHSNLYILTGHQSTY

[6] = biological target: Eukaryotic translation initiation factor 2-alpha kinase 1 (Homo sapiens, UniProt Q9BQI3)
Eukaryotic translation initiation factor 2-alpha kinase 1, sequence (Q9BQI3 whole entry): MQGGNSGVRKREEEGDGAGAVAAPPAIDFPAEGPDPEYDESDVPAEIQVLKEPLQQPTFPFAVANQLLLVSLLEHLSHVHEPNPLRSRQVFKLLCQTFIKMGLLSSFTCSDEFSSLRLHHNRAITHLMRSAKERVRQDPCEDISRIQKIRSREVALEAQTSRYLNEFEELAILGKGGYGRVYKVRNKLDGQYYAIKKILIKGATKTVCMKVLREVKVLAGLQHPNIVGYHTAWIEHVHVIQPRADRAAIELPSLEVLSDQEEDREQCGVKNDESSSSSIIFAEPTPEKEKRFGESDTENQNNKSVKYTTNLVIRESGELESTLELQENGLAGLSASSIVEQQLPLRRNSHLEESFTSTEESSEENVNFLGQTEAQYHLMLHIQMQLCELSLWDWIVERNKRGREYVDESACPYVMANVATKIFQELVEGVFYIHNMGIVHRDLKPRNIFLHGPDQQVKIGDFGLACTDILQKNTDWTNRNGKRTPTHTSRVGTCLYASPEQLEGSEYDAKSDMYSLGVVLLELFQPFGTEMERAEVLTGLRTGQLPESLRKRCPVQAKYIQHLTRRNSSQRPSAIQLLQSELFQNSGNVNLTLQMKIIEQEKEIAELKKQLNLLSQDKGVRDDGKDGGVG

[7] = biological target: T4, Electron transfer flavoprotein subunit beta (Homo sapiens, UniProt P38117)
T4 sequence (P38117 whole entry): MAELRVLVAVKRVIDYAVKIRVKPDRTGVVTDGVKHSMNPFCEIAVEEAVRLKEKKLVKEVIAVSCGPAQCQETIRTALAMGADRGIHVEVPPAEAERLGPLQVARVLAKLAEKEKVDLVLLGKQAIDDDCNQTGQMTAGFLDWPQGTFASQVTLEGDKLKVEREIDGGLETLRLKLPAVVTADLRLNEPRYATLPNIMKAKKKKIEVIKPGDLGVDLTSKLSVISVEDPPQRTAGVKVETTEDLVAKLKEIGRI

Measured: Kd
Note: in the data inactive means no Kd found up to 30 µM.

Cn1cc(-c2[nH]c3cc(NC(=O)[C@H](N)C4CCCCC4)cc4c3c2C=NNC4=O)cn1
inactive: [1] > 30 µM | Insulin receptor > 30 µM | [2] > 30 µM | [3] > 30 µM | [4] > 30 µM | [5] > 30 µM | [6] > 30 µM | [7] > 30 µM

NC[C@@](O)(c1ccc(Cl)cc1)c1ccc(-c2cn[nH]c2)cc1 [AT-13148]
inactive: [1] > 30 µM | Insulin receptor > 30 µM | [2] > 30 µM | [3] > 30 µM | [4] > 30 µM | [5] > 30 µM | [6] > 30 µM | [7] > 30 µM

COc1cc(F)c(F)c(Nc2ccc(I)cc2F)c1NS(=O)(=O)C1(C[C@H](O)CO)CC1 [REFAMETINIB]
inactive: [1] > 30 µM | Insulin receptor > 30 µM | [2] > 30 µM | [3] > 30 µM | [4] > 30 µM | [5] > 30 µM | [6] > 30 µM | [7] > 30 µM

COc1cc2ncnc3c2cc1OCCCCCN(C)Cc1ccc(Br)cc1N3 [JNJ-26483327]
inactive: [1] > 30 µM | Insulin receptor > 30 µM | [2] > 30 µM | [3] > 30 µM | [4] > 30 µM | [5] > 30 µM | [6] > 30 µM | [7] > 30 µM

C=CC(=O)Nc1cccc(Nc2nc(Nc3ccc(N4CCN(C(C)=O)CC4)cc3OC)ncc2C(F)(F)F)c1 [ROCILETINIB]
inactive: [1] > 30 µM | Insulin receptor > 30 µM | [2] > 30 µM | [3] > 30 µM | [4] > 30 µM | [5] > 30 µM | [6] > 30 µM | [7] > 30 µM

CCc1cc2c(cc1N1CCC(N3CCOCC3)CC1)C(C)(C)c1[nH]c3cc(C#N)ccc3c1C2=O [ALECTINIB]
inactive: [1] > 30 µM | Insulin receptor > 30 µM | [2] > 30 µM | [3] > 30 µM | [4] > 30 µM | [5] > 30 µM | [6] > 30 µM | [7] > 30 µM

COc1cc2ncnc(Nc3ccc(F)c(Cl)c3)c2cc1NC(=O)/C=C/CN1CCCCC1 [DACOMITINIB ANHYDROUS]
inactive: [1] > 30 µM | Insulin receptor > 30 µM | [2] > 30 µM | [3] > 30 µM | [4] > 30 µM | [5] > 30 µM | [6] > 30 µM | [7] > 30 µM

Cc1c(NC(=O)OC[C@@H]2COCCN2)cn2ncnc(Nc3ccc4c(cnn4Cc4cccc(F)c4)c3)c12 [AC-480]
inactive: [1] > 30 µM | Insulin receptor > 30 µM | [2] > 30 µM | [3] > 30 µM | [4] > 30 µM | [5] > 30 µM | [6] > 30 µM | [7] > 30 µM

COc1cc2nccc(Oc3ccc(NC(=O)C4(C(=O)Nc5ccc(F)cc5)CC4)cc3)c2cc1OC [CABOZANTINIB]
inactive: [1] > 30 µM | Insulin receptor > 30 µM | [2] > 30 µM | [3] > 30 µM | [4] > 30 µM | [5] > 30 µM | [6] > 30 µM | [7] > 30 µM

Cc1c(Cn2c(C)nc3c(C(=O)O)cc(N4CCOCC4)cc32)cccc1C(F)(F)F [GSK-2636771]
inactive: [1] > 30 µM | Insulin receptor > 30 µM | [2] > 30 µM | [3] > 30 µM | [4] > 30 µM | [5] > 30 µM | [6] > 30 µM | [7] > 30 µM

Cc1cc(Nc2nc(N[C@@H](C)c3ncc(F)cn3)ncc2Cl)n[nH]1 [AZD-1480]
inactive: [1] > 30 µM | Insulin receptor > 30 µM | [2] > 30 µM | [3] > 30 µM | [4] > 30 µM | [5] > 30 µM | [6] > 30 µM | [7] > 30 µM

Cc1ccc(C(=O)Nc2ccc(Oc3cc4cnn(C)c4cc3-c3cn[nH]c3)c(F)c2)c(=O)n1-c1ccc(F)cc1 [MERESTINIB]
inactive: [1] > 30 µM | Insulin receptor > 30 µM | [2] > 30 µM | [3] > 30 µM | [4] > 30 µM | [5] > 30 µM | [6] > 30 µM | [7] > 30 µM
